The data set is described as follows: Plasma concentration of vitamin D3 in rats after a single oral dose (absorption / bioavailability study). In kind it is in vivo, Wistar rats. The conditions noted are these: for Cmax / Tmax / AUC: Area Under the plasma conc.-time Curve: rat plasma, 50,000 IU oral; for AUC: Area Under the plasma conc.-time Curve: trapezoid rule; for Mean plasma concentration of vitamin D3: rat, 50,000 IU oral. The method, then:
The present study was undertaken to compare the rate of absorption of vitamin D3, from formulated vitamin D3 with tomato seed oil and high-fat meal. The absorption was studied by serial measurements of the plasma concentration of vitamin D3 after ingestion of a pharmacological dose of the vitamin dissolved in the vehicles.
Male Albino Wistar rats were used. Animals were kept under a twelve-hour light/dark cycle. Group I was treated with normal diet and vitamin D3 (50,000 IU). Group II was given Vitamin D3 (50,000 IU) with High-Fat diet. Group III was treated with Vitamin D3 (50,000 IU) formulation in tomato seed oil orally. 10 mL/kg body weight was used for gavage administration. […] Animals were ether anesthetized and blood samples (approximately 0.5 mL) were collected via retro-orbital sinus puncture.
Blood samples were collected in heparinized eppendorf tubes. Tubes were inverted several times to mix and were then placed on ice and centrifuged to separate plasma within 1 h time. After centrifugation, plasma was transferred into storage tubes (0.5 mL), which were stored frozen (approximately −70° C.) until analyzed.
Plasma processing involved liquid-liquid extraction using acetonitrile and methanol (80:20). 100 μL aliquot of plasma was mixed with 1 mL of acetonitrile and methanol. After vortex mixing for 1 min, the sample was centrifuged at 7,000 rpm at 4° C. for 10 min to remove precipitated proteins; the supernatant was transferred to a clean tube and dried under nitrogen at room temperature (approximately 25° C.). After the evaporation was completed, the residue was reconstituted in 100 μL of methanol with 5 min of sonication, added to 400 μL of water, vortex mixed, and centrifuged again. The resulting supernatant was transferred to a sample vial for instrumental analysis.
Chromatography was performed using a Phenomenex C18 […]×4.6 mm, 5 μm column, maintained at a temperature of 35° C. A flow rate of 1 mL/min was used; mobile phase acetonitrile and methanol (80:20); elution gradient program, injection volume 5 μL, detection UV, 280 nm. Total run time was 15 min.
The data was represented in a plasma level-time curve. The area under time curve (AUC) was calculated using Trapezoid rule. The maximum concentration (Cmax) and maximum time (Tmax) were obtained directly from generated data. The maximum plasma concentration (Cmax) and the time to reach Cmax (Tmax) were obtained directly from the plasma concentration-time curve. All values were expressed as mean±standard deviation (SD) except Tmax mentioned as median.

The record followed here is patent publication US10130641B2, “Compositions of vitamin D and methods for their use and manufacture” (priority 2015, dated 2018).

In the case of `C=C1CC[C@H](O)C/C1=C/C=C1\CCC[C@]2(C)[C@@H]([C@H](C)CCCC(C)C)CC[C@@H]12` [Vitamin D3 + High-Fat Diet, cholecalciferol], for the setting “high-fat diet”, the Cmax is 86090 ± 12140 ng/mL, the Tmax was determined as 12 h and the “AUC: Area Under the plasma conc.-time Curve” value is reported as 1595 + 600.6 μg · hr/ml. In addition, the “Mean plasma concentration of vitamin D3” value (high-fat diet, 0 min) was found to be 0 ng/mL. Moreover, the “Mean plasma concentration of vitamin D3” value (high-fat diet, 30 min) came out at 0 ng/mL.
Compound `C=C1CC[C@H](O)C/C1=C/C=C1\CCC[C@]2(C)[C@@H]([C@H](C)CCCC(C)C)CC[C@@H]12` [Vitamin D3 + Normal Diet, cholecalciferol] yielded a Cmax (normal diet) of 47030 ± 4150 ng/mL. Besides, the Tmax (normal diet) is 24 h. Also, the “AUC: Area Under the plasma conc.-time Curve” value (normal diet) is recorded as 3478 + 1758 μg · hr/ml. The “Mean plasma concentration of vitamin D3” value reads like this: (normal diet, 0 min) 0 ng/mL; (normal diet, 30 min) 0 ng/mL; (normal diet, 1 hrs) 1867 ± 800 ng/mL; (normal diet, 2 hrs) 4310 ± 1530 ng/mL; (normal diet, 3 hrs) 9870 ± 4140 ng/mL; (normal diet, 4 hrs) 12000 ± 4970 ng/mL. Further, the “Mean plasma concentration of vitamin D3” value runs as follows: (normal diet, 6 hrs) 10740 ± 8060 ng/mL; (normal diet, 8 hrs) 13590 ± 4160 ng/mL; (normal diet, 12 hrs) 16060 ± 3500 ng/mL; (normal diet, 24 hrs) 47030 ± 4150 ng/mL; (normal diet, 48 hrs) 17940 ± 1330 ng/mL; (normal diet, 72 hrs) 1070 ± 350 ng/mL.
